Data set [1] has as its target T1, Recombinant human JAK1 catalytic domain (Homo sapiens, UniProt P23458).
T1 construct: Recombinant human JAK1 catalytic domain (amino acids 850-1154; catalog number 08-144); purchased Carna Biosciences 08-144
As to the kind of experiment: JAK1 inhibition assay. As to conditions: semi-quantitative score. The format is biochemical. The procedure: Recombinant human JAK1 catalytic domain (amino acids 850-1154; catalog number 08-144) was purchased from Carna Biosciences. 10 ng of JAK1 was incubated with 12.5 μg polyGT substrate (Sigma catalog number P0275) in kinase reaction buffer (15 mM Tris-HCl pH 7.5, 1 mM DTT, 0.01% Tween-20, 10 mM MgCl2, 2 μM non-radioactive ATP, 0.25 μCi 33P-gamma-ATP (GE Healthcare, catalog number AH9968) final concentrations) with or without 5 μL containing test compound or vehicle (DMSO, 1% final concentration), in a total volume of 25 μL, in a polypropylene 96-well plate (Greiner, V-bottom). After 45 min at 30° C., reactions were stopped by adding of 25 μL/well of 150 mM phosphoric acid. All of the terminated kinase reaction was transferred to prewashed (75 mM phosphoric acid) 96 well filter plates (Perkin Elmer catalog number 6005177) using a cell harvester (Perkin Elmer). Plates were washed 6 times with 300 μL per well of a 75 mM phosphoric acid solution and the bottom of the plates was sealed. 40 μL/well of Microscint-20 was added, the top of the plates was sealed and readout was performed using the Topcount (Perkin Elmer). Kinase activity was calculated by subtracting counts per minute (cpm) obtained in the presence of a positive control inhibitor (10 μM staurosporine) from cpm obtained in the presence of vehicle. The ability of a test compound to inhibit this activity was determined as: Percentage inhibition=((cpm determined for sample with test compound present−cpm determined for sample with positive control inhibitor)divided by(cpm determined in the presence of vehicle−cpm determined for sample with positive control inhibitor))*100%.
Dose dilution series were prepared for the compounds enabling the testing of dose-response effects in the JAK1 assay and the calculation of the IC50 for each compound. Each compound was routinely tested at concentration of 20 μM followed by a 1/3 serial dilution, 8 points (20 μM-6.67 μM-2.22 μM-740 nM-247 nM-82 nM-27 nM-9 nM) in a final concentration of 1% DMSO.

Data set [2] deals with T2, Recombinant human JAK2 catalytic domain (Homo sapiens, UniProt O60674).
T2 construct: Recombinant human JAK2 catalytic domain (amino acids 808-1132; catalog number PV4210); purchased Invitrogen PV4210
T2 sequence (O60674 808-1132): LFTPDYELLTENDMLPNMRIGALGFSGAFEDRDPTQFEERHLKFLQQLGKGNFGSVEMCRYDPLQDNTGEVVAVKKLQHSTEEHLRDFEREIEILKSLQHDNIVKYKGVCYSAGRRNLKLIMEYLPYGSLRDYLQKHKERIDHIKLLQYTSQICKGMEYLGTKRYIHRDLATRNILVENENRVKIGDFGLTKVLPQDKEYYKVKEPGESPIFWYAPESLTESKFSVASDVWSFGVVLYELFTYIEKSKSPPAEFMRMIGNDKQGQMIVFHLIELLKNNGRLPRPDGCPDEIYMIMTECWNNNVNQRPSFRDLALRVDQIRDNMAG
The data set is described as follows: JAK2 inhibition assay. It is filed as biochemical. The note with it: semi-quantitative score. Here is the method:
Recombinant human JAK2 catalytic domain (amino acids 808-1132; catalog number PV4210) was purchased from Invitrogen. 0.025 mU of JAK2 was incubated with 2.5 μg polyGT substrate (Sigma catalog number P0275) in kinase reaction buffer (5 mM MOPS pH 7.5, 9 mM MgAc, 0.3 mM EDTA, 0.06% Brij and 0.6 mM DTT, 1 μM non-radioactive ATP, 0.25 μCi 33P-gamma-ATP (GE Healthcare, catalog number AH9968) final concentrations) with or without 5 μL containing test compound or vehicle (DMSO, 1% final concentration), in a total volume of 25 μL, in a polypropylene 96-well plate (Greiner, V-bottom). After 90 min at 30° C., reactions were stopped by adding of 25 μL/well of 150 mM phosphoric acid. All of the terminated kinase reaction was transferred to prewashed (75 mM phosphoric acid) 96 well filter plates (Perkin Elmer catalog number 6005177) using a cell harvester (Perkin Elmer). Plates were washed 6 times with 300 μL per well of a 75 mM phosphoric acid solution and the bottom of the plates was sealed. 40 μL/well of Microscint-20 was added, the top of the plates was sealed and readout was performed using the Topcount (Perkin Elmer). Kinase activity was calculated by subtracting counts per minute (cpm) obtained in the presence of a positive control inhibitor (10 μM staurosporine) from cpm obtained in the presence of vehicle. The ability of a test compound to inhibit this activity was determined as: Percentage inhibition=((cpm determined for sample with test compound present−cpm determined for sample with positive control inhibitor) divided by (cpm determined in the presence of vehicle−cpm determined for sample with positive control inhibitor))*100%.
Dose dilution series were prepared for the compounds enabling the testing of dose-response effects in the JAK2 assay and the calculation of the IC50 for each compound. Each compound was routinely tested at concentration of 20 μM followed by a 1/3 serial dilution, 8 points (20 μM-6.67 μM-2.22 μM-740 nM-247 nM-82 nM-27 nM-9 nM) in a final concentration of 1% DMSO.

Data set [3] can be described thus: Microsomal stability, human. As to conditions: human liver microsomes, 3 μM compound, 37° C. The format is in vitro ADME. Here is the method:
(§1) A 10 mM stock solution of compound in DMSO was diluted 1000 fold in a 182 mM phosphate buffer pH 7.4 in a 96 deep well plate (Greiner, Cat no. 780285) and pre-incubated at 37° C.
(§2) 40 μL of deionised water was added to a well of a polypropylene Matrix 2D barcode labelled storage tube (Thermo Scientific) and pre-incubated at 37° C.
(§3) A Glucose-6-phosphate-dehydrogenase (G6PDH) working stock solution was prepared in 182 mM phosphate buffer pH7.4 and placed on ice before use. A co-factor containing MgCl2, glucose-6-phosphate and NADP+ was prepared in deionised water and placed on ice before use.
(§4) A final working solution containing liver microsomes (Xenotech) of a species of interest (human, mouse, rat, dog), previously described G6PDH and co-factors was prepared and this mix was incubated for no longer than 20 minutes at room temperature.
(§5) 30 μL of the pre-heated compound dilution was added to 40 μL of pre-heated water in the Matrix tubes and 30 μL of the microsomal mix was added. Final reaction concentrations were 3 μM compound, 1 mg microsomes, 0.4 U/mL GDPDH, 3.3 mM MgCl2, 3.3 mM glucose-6-phosphate and 1.3 mM NADP+.
(§6) To measure percentage remaining of compound at time zero MeOH or ACN was added (1:1) to the well before adding the microsomal mix. The plates were sealed with Matrix Sepra Seals™ (Matrix, Cat. No. 4464) and shaken for a few seconds ensure complete mixing of all components.
(§7) The samples which were not stopped are incubated at 37° C., 300 rpm and after 1 hour of incubation the reaction was stopped with MeOH or ACN (1:1).
(§8) After stopping the reaction the samples were mixed and placed on ice for 30 min to precipitate the proteins. The plates were then centrifuged 30 min at 1200 rcf at 4° C. and the supernatant was transferred to a 96 v-bottom PP plate (Greiner, 651201) for analysis on LCMS.
(§9) These plates were sealed with sealing mats (MA96RD-04S) of www.kinesis.co.uk and samples were measured at room temperature on LCMS (ZQ 1525 from Waters) under optimized conditions using Quanoptimize to determine the appropriate mass of the parent molecule.
(§10) The samples were analyzed on LCMS with a flow rate of 1 mL/min. Solvent A was 15 mM ammonia and solvent B was methanol or acetonitrile, depending on the stop solution used. The samples were run under positive ion spray on an XBridge C18 […] (2.1×30 mm) column, from Waters.
(§11) Peak area from the parent compound at time 0 was considered to be 100% remaining. The percentage remaining after 1 hour incubation was calculated from time 0 and was calculated as the percentage remaining. The solubility of the compound in the final test concentration in buffer is inspected by microscope and results are reported.
(§12) The data on microsomal stability are expressed as a percentage of the total amount of compound remaining after 60 minutes.

Data set [4] can be described thus: Microsomal stability, rat. As to conditions: rat liver microsomes, 3 μM compound, 37° C. It is filed as in vitro ADME. The procedure: as §1, §2, §3, §4, §5, §6, §7, §8, §9, §10, §11, §12
The nature of data set [5]: Caco2 permeability, bi-directional. As to conditions: human, Caco-2; 10 μM, 1 hour, pH 7.4. It is filed as in vitro ADME. Here is the method:
Bi-directional Caco-2 assays were performed as described below. Caco-2 cells were obtained from European Collection of Cell Cultures (ECACC, cat 86010202) and used after a 21 day cell culture in 24-well Transwell plates (Fisher TKT-545-020B).
2×10^5 cells/well were seeded in plating medium consisting of DMEM+GlutaMAXI+1% NEAA+10% FBS (FetalClone II)+1% Pen/Strep. The medium was changed every 2-3 days.
Test and reference compounds (propranolol and rhodamine 123 or vinblastine, all purchased from Sigma) were prepared in Hanks' Balanced Salt Solution containing 25 mM HEPES (pH 7.4) and added to either the apical (125 μL) or basolateral (600 μL) chambers of the Transwell plate assembly at a concentration of 10 μM with a final DMSO concentration of 0.25%.
50 μM Lucifer Yellow (Sigma) was added to the donor buffer in all wells to assess integrity of the cell layers by monitoring Lucifer Yellow permeation. As Lucifer Yellow (LY) cannot freely permeate lipophilic barriers, a high degree of LY transport indicates poor integrity of the cell layer.
After a 1 hour incubation at 37° C. while shaking at an orbital shaker at 150 rpm, 70 μL aliquots were taken from both apical (A) and basal (B) chambers and added to 100 μLl 50:50 acetonitrile:water solution containing analytical internal standard (0.5 μM carbamazepine) in a 96 well plate.
Lucifer yellow was measured with a Spectramax Gemini XS (Ex 426 nm and Em 538 nm) in a clean 96 well plate containing 150 μL of liquid from basolateral and apical side.
Concentrations of compound in the samples were measured by high performance liquid-chromatography/mass spectroscopy (LC-MS/MS).
The Efflux ratios, as an indication of active efflux from the apical cell surface, were calculated using the ratio of PappB>A/PappA>B.

Data set [6] deals with TNF release. As to the kind of experiment: Septic shock model (LPS). The format is in vivo, mice. As to conditions: 3 mg/kg. The procedure: Injection of lipopolysaccharide (LPS) induces a rapid release of soluble tumour necrosis factor (TNF-alpha) into the periphery. This model is used to analyse prospective blockers of TNF release in vivo.
Six BALB/cJ female mice (20 g) per group were treated at the intended dosing once, po. Thirty minutes later, LPS (15 μg/kg; E. Coli serotype 0111:B4) was injected ip. Ninety minutes later, mice were euthanized and blood was collected. Circulating TNF alpha levels were determined using commercially available ELISA kits. Dexamethasone (5 μg/kg) was used as a reference anti-inflammatory compound. Selected compounds are tested at one or multiple doses, e.g. 3 and/or 10 and/or 30 mg/kg, po.

These results are taken from patent US8242274B2, “Triazolopyridine kinase inhibitors useful for the treatment of degenerative and inflammatory diseases” (Galapagos NV, priority 2008, dated 2012).

SMILES strings stand for the structures.

T1 sequence (P23458 850-1154): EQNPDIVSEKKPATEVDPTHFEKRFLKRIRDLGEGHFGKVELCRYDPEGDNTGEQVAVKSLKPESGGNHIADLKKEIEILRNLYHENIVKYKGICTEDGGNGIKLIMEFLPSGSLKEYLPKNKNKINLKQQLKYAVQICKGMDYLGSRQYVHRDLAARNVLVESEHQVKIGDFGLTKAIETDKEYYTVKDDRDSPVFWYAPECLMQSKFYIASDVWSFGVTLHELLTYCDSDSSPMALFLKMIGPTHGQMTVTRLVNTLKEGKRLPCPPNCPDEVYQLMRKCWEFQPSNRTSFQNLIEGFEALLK

With `O=C(Nc1nc2cccc(-c3ccc(OCc4ccc(N5CCCC5)nc4)cc3)n2n1)C1CC1` [Compound 174, N-(5-(4-((6-(pyrrolidin-1-yl)pyridin-3-yl)methoxy)phenyl)-[1,2,4]triazolo[1,5-a]pyridin-2-yl)cyclopropanecarboxamide], the IC50 in data set [1] is over 501 nM.

Turning to `O=C(Nc1nc2cccc(-c3cccc(OCc4ccccc4)c3)n2n1)C1CC1` [Compound 14, N-(5-(3-(benzyloxy)phenyl)-[1,2,4]triazolo[1,5-a]pyridin-2-yl)cyclopropanecarboxamide], in data set [2], the IC50 was over 501 nM.

Turning to `O=C(Nc1nc2cccc(-c3ccc(OCc4ccc(Cl)nc4)cc3)n2n1)C1CC1` [Compound 198, Cyclopropanecarboxylic acid {5-[4-(6-chloro-pyridin-3-ylmethoxy)-phenyl]-[1,2,4]triazolo[1,5-a]pyridin-2-yl}-amide], the IC50 is 0.1 to 100 nM in data set [1] and 1 to 100 nM in data set [2]. Also, the “Microsomal stability Human (%), compound remaining after 60 minutes” value in data set [3] amounted to 65.8%. Also, the “Microsomal stability Rat (%), compound remaining after 60 minutes” value in data set [4] is reported as 72.45%.

Turning to `O=C(Nc1nc2cccc(-c3ccc(NCc4cccnc4)cc3)n2n1)C1CC1` [Compound 182, N-(5-(4-(pyridin-3-ylmethylamino)phenyl)-[1,2,4]triazolo[1,5-a]pyridin-2-yl)cyclopropanecarboxamide], the half-maximal inhibitory concentration (IC50) in data set [1] was 0.1 to 100 nM. Moreover, the “Microsomal stability Human (%), compound remaining after 60 minutes” value in data set [3] is recorded as 19.33%. For the same compound, in data set [4], the “Microsomal stability Rat (%), compound remaining after 60 minutes” value amounted to 19.23%.

Take `O=C(Nc1nc2cccc(-c3ccc(OCc4ccccc4)c(F)c3)n2n1)C1CC1` [Compound 15, N-(5-(4-(benzyloxy)-3-fluorophenyl)-[1,2,4]triazolo[1,5-a]pyridin-2-yl)cyclopropanecarboxamide]: in data set [1], the IC50 was in the range of 0.1 to 100 nM. Besides, the “Microsomal stability Human (%), compound remaining after 60 minutes” value in data set [3] worked out at 43%. In addition, the “Microsomal stability Rat (%), compound remaining after 60 minutes” value in data set [4] is 14%. This compound returned a Papp A→B at 1 h, 10 μM in data set [5] of 25.8 ×10⁻⁶ cm/s.

Take `COC(=O)c1ccc(COc2ccc(-c3cccc4nc(NC(=O)C5CC5)nn34)cc2)nc1` [Compound 190]: in data set [1], the half-maximal inhibitory concentration (IC50) was in the range of 0.1 to 100 nM. In addition, the “Microsomal stability Human (%), compound remaining after 60 minutes” value in data set [3] is listed as 2.13%. Further, the “Microsomal stability Rat (%), compound remaining after 60 minutes” value in data set [4] stood at 25.64%.

Consider `CC(=O)Nc1nc2cccc(-c3ccc(OCc4ccccc4)cc3)n2n1` [Compound 163, N-(5-(4-(benzyloxy)phenyl)-[1,2,4]triazolo[1,5-a]pyridin-2-yl)acetamide], for which the IC50 in data set [1] lay within 0.1 to 100 nM. For the same compound, the “Microsomal stability Human (%), compound remaining after 60 minutes” value in data set [3] was determined as 53.64%. Besides, the “Microsomal stability Rat (%), compound remaining after 60 minutes” value in data set [4] stood at 39.78%. Besides, the apical-to-basolateral permeability (Papp A→B) at 1 h, 10 μM in data set [5] was found to be 13.4 ×10⁻⁶ cm/s.

On to `Cc1ccc(COc2ccc(-c3cccc4nc(NC(=O)C5CC5)nn34)cc2)cn1` [Compound 197, Cyclopropanecarboxylic acid {5-[4-(6-methyl-pyridin-3-ylmethoxy)-phenyl]-[1,2,4]triazolo[1,5-a]pyridin-2-yl}-amide], for which the IC50 in data set [1] lay in the range of 0.1 to 100 nM; in data set [2], 1 to 100 nM. Moreover, the “activity in the septic shock model” value in data set [6] is on record as “active”. Moreover, in data set [3], the “Microsomal stability Human (%), compound remaining after 60 minutes” value amounted to 46.6%. In addition, the “Microsomal stability Rat (%), compound remaining after 60 minutes” value in data set [4] came out at 59.41%.
